Measured values reported in PMC8429728, “TNK1 is a ubiquitin-binding and 14-3-3-regulated kinase that can be targeted to block tumor growth” (Nature Communications, 2021).
Read-outs that look alike come from different tables or passages of the source.

Tests used:
Experiment in all cases: biochemical
Set-up in all cases: Reaction Biology 371-kinase panel at Km ATP, per cent enzyme activity relative to DMSO, single dose in duplicate
Conditions in all cases: duplicate measurements, Km ATP
ACK1 = target: T1, ACK1 (Homo sapiens, UniProt Q07912)
T1 construct: gene TNK2
Experimental: (§1) To assess kinase selectivity, we screened TP-5801 (300 nM) against a panel of 371 kinases in vitro. […] In addition to TNK1, only 7 other kinases were inhibited by more than 90% (Supplementary Fig. 8 and Supplementary Data 2). […] The resulting % Enzyme activity (relative to DMSO controls) were plotted in GraphPad and IC50 values were determined by sigmoidal dose-response (variable slope) curve fits, with a bottom constraint of 0.

CAMK1a = target: T2, CAMK1a (Homo sapiens, UniProt Q14012)
T2 construct: gene CAMK1
Experimental: as §1

CDK5/P25 = target: T3, CDK5/P25 (Homo sapiens, UniProt Q00535)
T3 construct: p25
Experimental: as §1

DYRK4 = target: T4, DYRK4 (Homo sapiens, UniProt Q9NR20)
T4 sequence (Q9NR20 1-520): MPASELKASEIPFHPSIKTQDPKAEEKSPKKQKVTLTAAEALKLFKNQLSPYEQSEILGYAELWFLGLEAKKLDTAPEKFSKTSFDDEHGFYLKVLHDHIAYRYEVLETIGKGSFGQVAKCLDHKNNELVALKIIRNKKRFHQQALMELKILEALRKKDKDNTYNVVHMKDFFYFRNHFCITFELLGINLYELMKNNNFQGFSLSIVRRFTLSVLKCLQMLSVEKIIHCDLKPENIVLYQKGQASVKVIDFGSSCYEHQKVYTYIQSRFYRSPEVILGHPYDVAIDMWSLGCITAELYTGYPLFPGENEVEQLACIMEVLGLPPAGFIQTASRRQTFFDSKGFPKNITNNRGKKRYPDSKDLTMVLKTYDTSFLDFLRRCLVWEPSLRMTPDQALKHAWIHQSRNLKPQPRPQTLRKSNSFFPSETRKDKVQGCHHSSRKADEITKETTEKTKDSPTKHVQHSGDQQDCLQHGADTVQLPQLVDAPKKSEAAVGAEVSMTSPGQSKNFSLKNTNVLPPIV
Experimental: as §1

ERK7/MAPK15 = ERK7/MAPK15 (Homo sapiens, UniProt Q8TD08)
Experimental: as §1

FAK/PTK2 = FAK/PTK2 (Homo sapiens, UniProt Q05397)
FAK/PTK2, sequence (Q05397 whole entry): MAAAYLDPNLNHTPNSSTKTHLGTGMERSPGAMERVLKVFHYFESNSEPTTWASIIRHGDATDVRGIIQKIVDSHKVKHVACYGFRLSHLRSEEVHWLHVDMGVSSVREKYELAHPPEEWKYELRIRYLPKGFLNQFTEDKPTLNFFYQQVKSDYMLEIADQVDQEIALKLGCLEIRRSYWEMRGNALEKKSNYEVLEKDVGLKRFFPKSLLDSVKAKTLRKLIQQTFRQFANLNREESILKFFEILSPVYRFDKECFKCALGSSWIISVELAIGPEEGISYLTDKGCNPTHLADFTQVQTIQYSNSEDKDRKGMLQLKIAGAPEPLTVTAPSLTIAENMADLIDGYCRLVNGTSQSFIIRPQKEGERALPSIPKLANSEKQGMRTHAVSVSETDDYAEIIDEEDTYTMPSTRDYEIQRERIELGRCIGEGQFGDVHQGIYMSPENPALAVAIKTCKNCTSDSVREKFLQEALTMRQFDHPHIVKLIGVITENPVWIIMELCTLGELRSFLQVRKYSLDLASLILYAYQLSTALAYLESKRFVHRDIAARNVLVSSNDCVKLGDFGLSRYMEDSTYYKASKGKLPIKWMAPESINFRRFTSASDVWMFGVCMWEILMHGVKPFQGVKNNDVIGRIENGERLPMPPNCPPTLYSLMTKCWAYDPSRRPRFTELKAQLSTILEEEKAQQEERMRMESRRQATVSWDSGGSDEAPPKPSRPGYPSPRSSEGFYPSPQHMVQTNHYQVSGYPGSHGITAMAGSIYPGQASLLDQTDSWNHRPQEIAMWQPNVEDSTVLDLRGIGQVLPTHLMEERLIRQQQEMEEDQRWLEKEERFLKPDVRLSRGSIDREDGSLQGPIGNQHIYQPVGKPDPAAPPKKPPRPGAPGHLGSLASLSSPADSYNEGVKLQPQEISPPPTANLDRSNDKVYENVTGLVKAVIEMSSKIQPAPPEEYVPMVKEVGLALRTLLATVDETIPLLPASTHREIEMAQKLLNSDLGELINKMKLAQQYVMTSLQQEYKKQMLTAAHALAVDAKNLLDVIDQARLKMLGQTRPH
Experimental: as §1

FES/FPS = FES/FPS (Homo sapiens, UniProt P07332)
Experimental: as §1

LATS1 = LATS1 (Homo sapiens, UniProt O95835)
Experimental: as §1

MLK3/MAP3K11 = MLK3/MAP3K11 (Homo sapiens, UniProt Q16584)
MLK3/MAP3K11, sequence (Q16584 whole entry): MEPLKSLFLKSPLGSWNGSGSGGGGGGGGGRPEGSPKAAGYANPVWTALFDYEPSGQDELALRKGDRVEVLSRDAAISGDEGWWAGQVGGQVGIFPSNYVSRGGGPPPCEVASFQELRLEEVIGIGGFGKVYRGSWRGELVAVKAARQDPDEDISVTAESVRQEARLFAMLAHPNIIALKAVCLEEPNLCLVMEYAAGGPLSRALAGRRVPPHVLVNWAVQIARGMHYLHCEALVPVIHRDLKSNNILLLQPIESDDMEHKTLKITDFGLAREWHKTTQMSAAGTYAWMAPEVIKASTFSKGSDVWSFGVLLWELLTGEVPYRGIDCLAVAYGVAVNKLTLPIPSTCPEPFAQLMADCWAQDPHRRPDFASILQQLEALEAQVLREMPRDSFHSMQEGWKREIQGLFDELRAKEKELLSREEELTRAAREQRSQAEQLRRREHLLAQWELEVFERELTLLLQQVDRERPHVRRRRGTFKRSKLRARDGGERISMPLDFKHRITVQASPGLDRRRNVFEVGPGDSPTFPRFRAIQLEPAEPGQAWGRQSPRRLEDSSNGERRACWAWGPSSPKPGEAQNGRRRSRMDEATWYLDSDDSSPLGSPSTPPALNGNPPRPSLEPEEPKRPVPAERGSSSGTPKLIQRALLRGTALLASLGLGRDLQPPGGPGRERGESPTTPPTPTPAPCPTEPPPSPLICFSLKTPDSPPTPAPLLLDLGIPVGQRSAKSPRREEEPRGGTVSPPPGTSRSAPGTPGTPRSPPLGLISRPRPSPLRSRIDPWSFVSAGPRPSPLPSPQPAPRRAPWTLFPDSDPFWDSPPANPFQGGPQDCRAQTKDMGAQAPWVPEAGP
Experimental: as §1

NLK = NLK (Homo sapiens, UniProt Q9UBE8)
NLK, sequence (Q9UBE8 whole entry): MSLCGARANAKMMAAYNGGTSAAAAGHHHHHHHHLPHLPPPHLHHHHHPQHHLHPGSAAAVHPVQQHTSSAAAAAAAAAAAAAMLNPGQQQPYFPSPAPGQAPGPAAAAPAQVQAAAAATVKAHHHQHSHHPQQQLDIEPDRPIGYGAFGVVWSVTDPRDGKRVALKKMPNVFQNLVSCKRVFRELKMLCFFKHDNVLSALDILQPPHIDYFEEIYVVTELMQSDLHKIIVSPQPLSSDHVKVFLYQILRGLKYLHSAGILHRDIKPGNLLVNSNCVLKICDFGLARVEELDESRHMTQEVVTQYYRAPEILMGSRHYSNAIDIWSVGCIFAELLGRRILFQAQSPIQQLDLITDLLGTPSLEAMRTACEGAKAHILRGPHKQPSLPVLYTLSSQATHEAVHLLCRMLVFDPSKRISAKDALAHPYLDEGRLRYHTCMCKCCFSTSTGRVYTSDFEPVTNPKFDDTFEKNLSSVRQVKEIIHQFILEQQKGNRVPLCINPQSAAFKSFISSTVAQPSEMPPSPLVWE
Experimental: as §1

P38d/MAPK13 = P38d/MAPK13 (Homo sapiens, UniProt O15264)
Experimental: as §1

PAK4 = PAK4 (Homo sapiens, UniProt O96013)
PAK4, sequence (O96013 whole entry): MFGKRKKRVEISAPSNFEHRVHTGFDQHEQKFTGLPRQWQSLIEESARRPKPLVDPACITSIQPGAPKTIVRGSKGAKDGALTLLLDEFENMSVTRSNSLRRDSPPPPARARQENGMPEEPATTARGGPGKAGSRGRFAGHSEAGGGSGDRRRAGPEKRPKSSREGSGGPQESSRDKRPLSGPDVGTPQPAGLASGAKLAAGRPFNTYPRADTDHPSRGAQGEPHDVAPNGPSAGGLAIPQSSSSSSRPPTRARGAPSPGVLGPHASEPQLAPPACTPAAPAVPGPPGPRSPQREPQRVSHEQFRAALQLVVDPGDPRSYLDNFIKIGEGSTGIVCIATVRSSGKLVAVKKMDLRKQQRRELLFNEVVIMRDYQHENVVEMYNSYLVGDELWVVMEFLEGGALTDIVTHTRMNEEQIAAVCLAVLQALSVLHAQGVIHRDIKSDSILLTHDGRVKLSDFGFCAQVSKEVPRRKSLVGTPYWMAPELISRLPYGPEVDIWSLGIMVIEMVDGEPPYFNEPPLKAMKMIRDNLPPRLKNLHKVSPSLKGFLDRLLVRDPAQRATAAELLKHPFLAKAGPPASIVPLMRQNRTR
Experimental: as §1

RON/MST1R = RON/MST1R (Homo sapiens, UniProt Q04912)
RON/MST1R, sequence (Q04912 whole entry): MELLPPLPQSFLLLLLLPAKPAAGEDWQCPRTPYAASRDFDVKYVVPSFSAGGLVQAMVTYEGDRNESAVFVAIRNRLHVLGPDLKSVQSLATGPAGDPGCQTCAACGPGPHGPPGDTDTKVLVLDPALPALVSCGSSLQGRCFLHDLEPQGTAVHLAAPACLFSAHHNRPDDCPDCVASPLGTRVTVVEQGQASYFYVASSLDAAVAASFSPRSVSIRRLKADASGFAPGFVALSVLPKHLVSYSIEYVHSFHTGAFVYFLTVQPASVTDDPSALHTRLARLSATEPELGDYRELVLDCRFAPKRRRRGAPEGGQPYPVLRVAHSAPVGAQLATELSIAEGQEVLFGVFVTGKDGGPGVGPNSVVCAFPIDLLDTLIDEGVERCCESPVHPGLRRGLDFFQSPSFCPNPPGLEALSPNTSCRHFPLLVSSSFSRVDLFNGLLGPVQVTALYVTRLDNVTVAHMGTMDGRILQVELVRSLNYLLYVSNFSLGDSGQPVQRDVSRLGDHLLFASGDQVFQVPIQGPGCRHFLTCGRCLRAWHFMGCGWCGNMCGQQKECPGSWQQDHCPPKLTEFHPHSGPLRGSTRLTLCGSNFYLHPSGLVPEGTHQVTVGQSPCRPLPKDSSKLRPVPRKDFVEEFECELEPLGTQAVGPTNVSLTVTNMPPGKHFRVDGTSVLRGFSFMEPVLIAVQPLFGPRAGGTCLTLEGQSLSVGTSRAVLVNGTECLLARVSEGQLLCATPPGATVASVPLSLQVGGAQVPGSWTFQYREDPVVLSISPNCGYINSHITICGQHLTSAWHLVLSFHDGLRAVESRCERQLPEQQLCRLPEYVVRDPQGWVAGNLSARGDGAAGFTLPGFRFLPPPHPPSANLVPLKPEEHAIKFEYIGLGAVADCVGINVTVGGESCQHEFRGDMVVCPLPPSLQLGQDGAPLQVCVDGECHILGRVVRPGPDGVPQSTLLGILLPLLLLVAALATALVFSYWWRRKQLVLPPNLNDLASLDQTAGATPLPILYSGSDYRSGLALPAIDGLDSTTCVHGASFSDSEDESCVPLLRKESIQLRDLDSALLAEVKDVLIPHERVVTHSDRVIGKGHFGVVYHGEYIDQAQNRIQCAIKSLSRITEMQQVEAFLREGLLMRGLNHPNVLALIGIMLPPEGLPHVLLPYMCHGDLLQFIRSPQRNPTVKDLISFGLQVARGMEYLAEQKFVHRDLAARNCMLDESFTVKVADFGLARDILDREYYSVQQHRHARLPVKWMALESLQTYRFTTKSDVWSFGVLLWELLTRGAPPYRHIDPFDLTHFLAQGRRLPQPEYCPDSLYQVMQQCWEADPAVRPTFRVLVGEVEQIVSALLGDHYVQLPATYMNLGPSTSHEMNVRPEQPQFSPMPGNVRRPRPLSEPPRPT
Experimental: as §1

STK38L/NDR2 = STK38L/NDR2 (Homo sapiens, UniProt Q9Y2H1)
STK38L/NDR2, sequence (Q9Y2H1 whole entry): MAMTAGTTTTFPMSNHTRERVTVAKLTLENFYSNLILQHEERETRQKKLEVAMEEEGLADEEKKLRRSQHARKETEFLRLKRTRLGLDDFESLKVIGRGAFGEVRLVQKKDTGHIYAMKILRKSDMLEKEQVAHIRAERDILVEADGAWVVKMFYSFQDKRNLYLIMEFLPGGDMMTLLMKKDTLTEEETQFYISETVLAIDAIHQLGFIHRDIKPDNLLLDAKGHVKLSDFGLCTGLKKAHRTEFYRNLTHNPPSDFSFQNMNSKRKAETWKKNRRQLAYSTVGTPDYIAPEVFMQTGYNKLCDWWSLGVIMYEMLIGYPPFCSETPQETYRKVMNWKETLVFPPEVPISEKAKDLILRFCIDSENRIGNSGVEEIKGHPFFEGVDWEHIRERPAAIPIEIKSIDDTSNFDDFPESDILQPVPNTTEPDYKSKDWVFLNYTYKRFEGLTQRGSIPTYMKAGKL
Experimental: as §1

SYK = SYK (Homo sapiens, UniProt P43405)
Experimental: as §1

WNK1 = WNK1 (Homo sapiens, UniProt Q9H4A3)
Experimental: as §1

[1] = read-out: % Enzyme Activity (relative to DMSO controls) / TP-0005801 (0.3µM) / Data 1
[2] = read-out: % Enzyme Activity (relative to DMSO controls) / TP-0005801 (0.3µM) / Data 2

In the case of `COc1cc(N2CCN(C)CC2)c(C)cc1Nc1ncc(Br)c(Nc2cccnc2N(C)C)n1` [TP-5801], the remaining activity at 0.3 µM (ACK1; [1]) is reported as 1.69%, the remaining activity at 0.3 µM (ACK1; [2]) is reported as 1.45% and the remaining activity at 0.3 µM (CAMK1a; [1]) is reported as 92.6%. For the same compound, the remaining activity at 0.3 µM (CAMK1a; [2]) was 91.5%, the remaining activity at 0.3 µM (CDK5/P25; [1]) was 123% and the remaining activity at 0.3 µM (CDK5/P25; [2]) was 115%. For the same compound, the remaining activity at 0.3 µM (DYRK4; [1]) was 104%, the remaining activity at 0.3 µM (DYRK4; [2]) was 99.2% and the remaining activity at 0.3 µM (ERK7/MAPK15; [1]) was 97.2%. For the same compound, the remaining activity at 0.3 µM (ERK7/MAPK15; [2]) was 96.4%, the remaining activity at 0.3 µM (FAK/PTK2; [1]) was 12.3% and the remaining activity at 0.3 µM (FAK/PTK2; [2]) was 11.4%. For the same compound, the remaining activity at 0.3 µM (FES/FPS; [1]) was 18.2%, the remaining activity at 0.3 µM (FES/FPS; [2]) was 17.6% and the remaining activity at 0.3 µM (LATS1; [1]) was 103%. It also gave a remaining activity at 0.3 µM (LATS1; [2]) of 102%, a remaining activity at 0.3 µM (MLK3/MAP3K11; [1]) of 89.5% and a remaining activity at 0.3 µM (MLK3/MAP3K11; [2]) of 89.3%. It also gave a remaining activity at 0.3 µM (NLK; [1]) of 92.3%, a remaining activity at 0.3 µM (NLK; [2]) of 85.8% and a remaining activity at 0.3 µM (P38d/MAPK13; [1]) of 102%. It also gave a remaining activity at 0.3 µM (P38d/MAPK13; [2]) of 91.4%, a remaining activity at 0.3 µM (PAK4; [1]) of 59.4% and a remaining activity at 0.3 µM (PAK4; [2]) of 54.7%. The remaining activity at 0.3 µM (RON/MST1R; [1]) was 94%, the remaining activity at 0.3 µM (RON/MST1R; [2]) was 92.4% and the remaining activity at 0.3 µM (STK38L/NDR2; [1]) was 53.1%. For the same compound, the remaining activity at 0.3 µM (STK38L/NDR2; [2]) was 52.8%, the remaining activity at 0.3 µM (SYK; [1]) was 77.6% and the remaining activity at 0.3 µM (SYK; [2]) was 77.5%. It also gave a remaining activity at 0.3 µM (WNK1; [1]) of 108% and a remaining activity at 0.3 µM (WNK1; [2]) of 104%.
